Peptide text beside a SMILES is read from it.
Test system: male runners
Assay: Dynavision D2 MODE B reaction test with cognitive load (hits and time per hit in 60 s)
Assay type: in vivo, human
Design: Mode B Avg Δ, Mean Difference: unit not given here
Details: for Mode B Avg Δ (time per hit), group mean / Mode B Hits Δ, group mean: Post-Pre
Procedure: The testing protocol is depicted in FIG. 1. Data collection occurred on four separate occasions. Each session required participants to perform a 60-min run at 75% of their previously measured VO2max. Following this run, all participants performed a run at 90% of their VO2max until volitional exhaustion. All participants performed their first trial (DHY) without any rehydration. During this session the total weight lost during the trial was determined. The fluid loss that occurred during this session was then used to determine the participant's swear rate (L·hr^−1). To continue in the study, participant's sweat rate was or exceeded 1.3 L·hr^−1. During the next three trails participants were provided 250 ml of fluid every 15 minutes in equal amounts. During one of the trials participants consumed only a flavored sports drink (ELECT only), while during the other trials participants consumed the alanine-glutamine supplement (Sustamine™) mixed in the same flavored sports drink at either a low (LD: 300 mg per 500 ml) or high (HD: 1 g per 500 ml) dose. Measurement of upper body reaction time was performed on the Dynavision D2 Visuomotor Training Device (D2; Dynavision International LLC, West Chester, Ohio). The D2 is a light training reaction device, developed to train sensory motor integration through the visual system. It consists of a board (4 foot×4 foot) that can be raised or lowered relative to the height of the operator. It contains 64 target buttons arranged into five concentric circles surrounding a center screen that can be illuminated to serve as a stimulus for the participant. Participants were required to assume a comfortable athletic stance and stand at a distance from the board where they could easily reach all of the lights. The board height was adjusted so the LCD screen was located just below eye level. A total of three different reaction tests were conducted. Participants were instructed to fixate their gaze on the LCD screen in the middle of the board and to keep their focus there for the entirety of the experiment. The third assessment (MODE B) was similar to the previous measure in that participants were required to react to a visual stimulus as it changed positions on the board. However, the difference between the two assessments was that the stimulus remained for 1 s before it changed to another random location, and each participant was required to verbally recite a five digit number that was presented on the center screen of the D2 during each assessment. The appearance of the digits placed an additional demand on the information processing resources of the participant. The participant was instructed to successfully identify and strike each stimulus before it changed position and score as many strikes as possible within 60 s. The number of successful hits was recorded for each participant. Additionally, to make inferences on true effects of the different trials on reaction performance, an analysis based on the magnitude of differences, calculated from 90% confidence intervals, as previously described by Batterham and Hopkins (2005), was used in this study. Differences in Post-Pre performance (Δresponse) between trials were analyzed via a published spreadsheet (Hopkins 2007), with the smallest non-trivial change set at 20% of the grand standard deviation (Batterham and Hopkins 2005). All data are expressed as a mean effect±SD, with percent chances of a beneficial, trivial or negative outcome. Qualitative inferences, based on quantitative chances were assessed as: <1% almost certainly not, 1-5% very unlikely, 5-25% unlikely, 25-75% possibly, 75-95% likely, 95-99% very likely and >99% almost certainly (Hopkins 2002).

## C[C@H](N)C(=O)N[C@@H](CCC(N)=O)C(=O)O [L-Alanyl-L-Glutamine] (H-Ala-Gln-OH)
Dehydration vs High Dose
  Mode B Avg Δ, Interpretation: likely negative
  Mode B Avg Δ, Mean Difference: −0.023
  Mode B Avg Δ, Percent Negative: 82.12%
  Mode B Avg Δ, Percent Positive: 1.37%
  Mode B Avg Δ, Percent Trivial: 16.50%
  Mode B Hits Δ, Interpretation: Unclear
  Mode B Hits Δ, Mean Difference: 0.67
  Mode B Hits Δ, Percent Negative: 20.22%
  Mode B Hits Δ, Percent Positive: 31.57%
  Mode B Hits Δ, Percent Trivial: 48.20%
Dehydration vs Low Dose
  Mode B Avg Δ, Interpretation: Unclear
  Mode B Avg Δ, Mean Difference: −0.0075
  Mode B Avg Δ, Percent Negative: 41.89%
  Mode B Avg Δ, Percent Positive: 8.13%
  Mode B Avg Δ, Percent Trivial: 49.99%
  Mode B Hits Δ, Interpretation: Unclear
  Mode B Hits Δ, Mean Difference: −1.1
  Mode B Hits Δ, Percent Negative: 31.06%
  Mode B Hits Δ, Percent Positive: 10.62%
  Mode B Hits Δ, Percent Trivial: 58.32%
Gatorade vs High Dose
  Mode B Avg Δ, Interpretation: No
  Mode B Hits Δ, Interpretation: Unclear
  Mode B Hits Δ, Mean Difference: −0.5
  Mode B Hits Δ, Percent Negative: 33.43%
  Mode B Hits Δ, Percent Positive: 25.96%
  Mode B Hits Δ, Percent Trivial: 40.61%
High Dose (1 g per 500 ml)
  Mode B Avg Δ (time per hit), group mean: 0
  Mode B Hits Δ, group mean: 2.75
Low Dose (300 mg per 500 ml)
  Mode B Avg Δ (time per hit), group mean: −0.0158
  Mode B Hits Δ, group mean: 4.5
Low Dose vs Gatorade
  Mode B Avg Δ, Interpretation: possibly negative
  Mode B Avg Δ, Mean Difference: −0.016
  Mode B Avg Δ, Percent Negative: 70.44%
  Mode B Avg Δ, Percent Positive: 1.16%
  Mode B Avg Δ, Percent Trivial: 28.39%
  Mode B Hits Δ, Interpretation: Unclear
  Mode B Hits Δ, Mean Difference: 2.3
  Mode B Hits Δ, Percent Negative: 25.04%
  Mode B Hits Δ, Percent Positive: 48.77%
  Mode B Hits Δ, Percent Trivial: 26.19%
Low Dose vs High Dose
  Mode B Avg Δ, Interpretation: Unclear
  Mode B Avg Δ, Mean Difference: −0.016
  Mode B Avg Δ, Percent Negative: 64.75%
  Mode B Avg Δ, Percent Positive: 5.03%
  Mode B Avg Δ, Percent Trivial: 30.22%
  Mode B Hits Δ, Interpretation: Unclear
  Mode B Hits Δ, Mean Difference: 1.8
  Mode B Hits Δ, Percent Negative: 7.59%
  Mode B Hits Δ, Percent Positive: 40.19%
  Mode B Hits Δ, Percent Trivial: 52.22%
Between trials
  successful hits in MODE B and time per successful hits: No differences were noted between trials
